From PubChem BioAssay (NCI)
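Values below derive from 48-hour exposures of cells grown in 96-well plates, with endpoints linearly interpolated between the two concentrations bracketing the appropriate inhibition level. Here, GI50 denotes the concentration required for 50% inhibition of growth. At the TGI there is no net growth.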

Assays:
Assay in all cases: inhibition of tumour cell growth, NCI panel, 48 h
DU-145 prostate = tested on: DU-145 prostate
LOX IMVI melanoma = tested on: LOX IMVI melanoma
MDA-MB-435 = tested on: MDA-MB-435
NCI-H23 lung = tested on: NCI-H23 lung
RXF 393 renal = tested on: RXF 393 renal
SF-539 CNS = tested on: SF-539 CNS
T-47D breast = tested on: T-47D breast
TK-10 renal = tested on: TK-10 renal
UACC-257 melanoma = tested on: UACC-257 melanoma
UO-31 renal = tested on: UO-31 renal

Structure (SMILES): O=C1Nc2ccccc2/C1=C\c1c(-c2ccccc2)nc2sccn12
- GI50 (DU-145 prostate): 7.31 µM
- TGI (DU-145 prostate): 31.1 µM
- GI50 (LOX IMVI melanoma): 2.09 µM
- TGI (LOX IMVI melanoma): 13.8 µM
- GI50 (MDA-MB-435): 0.354 µM
- TGI (MDA-MB-435): 0.943 µM
- GI50 (NCI-H23 lung): 1.63 µM
- TGI (NCI-H23 lung): 4.18 µM
- GI50 (RXF 393 renal): 3.35 µM
- TGI (RXF 393 renal): 26.6 µM
- TGI (SF-539 CNS): > 34.4 µM
- GI50 (T-47D breast): 2.65 µM
- TGI (T-47D breast): > 33 µM
- GI50 (TK-10 renal): 4.61 µM
- TGI (TK-10 renal): 17.2 µM
- GI50 (UACC-257 melanoma): 14.9 µM
- TGI (UACC-257 melanoma): 41 µM
- GI50 (UO-31 renal): 2.55 µM
- TGI (UO-31 renal): 13.3 µM

Structure (SMILES): CCn1c(-c2nonc2N)nc2c(C#CC(C)(C)O)ncc(OC3CCNCC3)c21
- GI50 (DU-145 prostate): 10.4 µM
- TGI (DU-145 prostate): > 25 µM
- GI50 (LOX IMVI melanoma): 8.5 µM
- TGI (LOX IMVI melanoma): > 25 µM
- GI50 (MDA-MB-435): 13.6 µM
- TGI (MDA-MB-435): > 25 µM
- GI50 (NCI-H23 lung): > 23.7 µM
- TGI (NCI-H23 lung): > 25 µM
- GI50 (RXF 393 renal): 2.84 µM
- TGI (RXF 393 renal): 13.3 µM
- GI50 (SF-539 CNS): 2.95 µM
- TGI (SF-539 CNS): > 25 µM
- GI50 (T-47D breast): 1.21 µM
- TGI (T-47D breast): > 25 µM
- GI50 (TK-10 renal): 6.6 µM
- TGI (TK-10 renal): > 25 µM
- GI50 (UACC-257 melanoma): > 25 µM
- TGI (UACC-257 melanoma): > 25 µM
- GI50 (UO-31 renal): > 25 µM
- TGI (UO-31 renal): > 25 µM

Structure (SMILES): COc1cc2c(NCCCCCO)ncnc2c(OC)c1OC
- TGI (DU-145 prostate): > 100 µM
- TGI (LOX IMVI melanoma): > 100 µM
- TGI (MDA-MB-435): > 100 µM
- TGI (NCI-H23 lung): > 100 µM
- TGI (RXF 393 renal): > 100 µM
- TGI (SF-539 CNS): > 100 µM
- TGI (T-47D breast): > 100 µM
- TGI (TK-10 renal): > 100 µM
- TGI (UACC-257 melanoma): > 100 µM
- TGI (UO-31 renal): > 100 µM

Structure (SMILES): Fc1cc(F)c(F)c(S)c1F
- TGI (DU-145 prostate): > 100 µM
- TGI (LOX IMVI melanoma): > 100 µM
- TGI (MDA-MB-435): > 100 µM
- TGI (NCI-H23 lung): > 100 µM
- TGI (RXF 393 renal): 54.8 µM
- TGI (SF-539 CNS): > 100 µM
- TGI (T-47D breast): > 100 µM
- TGI (TK-10 renal): > 100 µM
- TGI (UACC-257 melanoma): > 100 µM
- TGI (UO-31 renal): > 100 µM
